Data published in patent US20120171123A1, “USES AND COMPOSITIONS FOR TREATMENT OF RHEUMATOID ARTHRITIS” (priority 2006, published 2012).

Columns and labels:
adult patients with RA [1] = assay: Study 1: DAS28 change by CRP category; type: in vivo, human
Description: (§1) 407 patients with active RA enrolled in the 2 study arms. Of these patients, 299 (73.5%) patients completed the study until Week 52 and were evaluated.
(§2) Patients were grouped into three cohorts based on baseline CRP concentrations: low (<1 mg/dL); intermediate (1-4 mg/dL); and high (>4 mg/dL). Analyses were further conducted in two categories of patients according to their change in CRP concentrations at Week 12: those with a ≧20% decrease in CRP from baseline; or those with a <20% decrease in CRP from baseline. The following efficacy and radiographic measures were analyzed at Week 52 in the three baseline CRP categories and in the two Week 12 change in CRP categories: DAS28, ACR 20/50/70, Health assessment questionnaire (HAQ), and Total Sharp score (TSS).

adult patients with RA [2] = assay: Study 1: change in C-reactive protein at Week 12; type: in vivo, human
Description: as §1, §2

[3] = test system: patients with long-standing RA; assay: Study 4: DAS28, clinical remission and sustained remission; type: in vivo, human
Source text: DAS28 represents disease activity, taking into consideration the TJC 28, SJC 28, CRP, and patient general health (based on VAS of 100 mm) (see Prevoo et al. (1995) Arthritis Rheum 38:44-48 and Van Gestel et al. (1999) J Rheumatol 26:705-711, each of which is incorporated by reference herein). DAS28 scores greater than or equal to 5.1 represent severe activity disease activity, less than 5.1 to 3.2 indicate moderate disease activity, less than 3.2 to 2.6 indicate low disease activity, and scores below 2.6 represent remission. At the end of the fourth year, the median DAS28 score was 2.7 (low disease activity). […] The largest increase in percentage of patients in clinical remission was seen between months 0-6, where an increase in the percentage of patients in remission went from 0% at month 0 to about 27% at month 6.
The rates of sustained remission and time to remission were consistent across durations of the disease. Remission rates were defined as greater than or equal to 6 months by baseline disease duration. Rates of sustained remission and time to remission are described below in Table 16.
Remission rates were defined as greater than or equal to 6 months by baseline disease duration.
(§3) Efficacy outcomes were evaluated as observed data: DAS28; ACR 20/50/70; Tender Joint Count (TJC); Swollen Joint Count (SJC); and HAQ Disability Index. Baseline demographics and disease characteristics were similar in both Study 4 and Study 5 consistent with moderate to severe RA, as shown below in Table 64: […]

[4] = test system: patients with long-standing RA; assay: Study 4: HAQ disability index; type: in vivo, human
Description: as §3

[5] = test system: patients with severe RA who had failed MTX; assay: Study 2 / Study 3 OLE (adalimumab monotherapy): SF-36; type: in vivo, human; details: within 26 weeks
Description: In addition to the SF-36 instrument, the Health Utilities Index Mark 3 (HUI3) and the Functional Assessment of Chronic Illness Therapy-Fatigue (FACIT-F) questionnaires were administered at baseline, 12 weeks, and the end of the study.
The HUI3 scale is 0-1, with “1” denoting perfect health and “0” denoting death. FACIT-F scores range from 0-52, with higher scores representing less fatigue. The SF-36 includes one multi-item scale that assesses eight different dimensions of health, including physical and psychosocial components. For each dimension a value of 0-100 is given, with higher numbers representing less impairment. Changes in HUI3 of ≧0.03, in FACIT-F of ≧4 and in SF-36 of ≧4.4 (physical subscales) and ≧3.1 (mental subscales) are considered clinically meaningful.
In addition to clinical parameters, the SF-36 instrument, the Health Utilities Index Mark 3 (HUI3), and the Functional Assessment of Chronic Illness Therapy-Fatigue (FACIT-F) questionnaires were administered at baseline, and at weeks 12, 26, 50, 74, 98, 122, 146 and 170, respectively. The HUI3 scale ranges from 0-1, with “1” denoting perfect health and “0” denoting death. FACIT-F scores range from 0-52, with higher scores representing less fatigue. SF-36 scores range from 0-100 with higher scores indicating improvement in HRQoL. […]

[6] = test system: patients with moderate to severe rheumatoid arthritis; assay: Study C: HAQ; type: in vivo, human
Description: The Canadian Adalimumab Clinical Trial (Study C) was an open-label, multi-center, Phase IIIb study conducted in Canada. […] Efficacy and safety were assessed at baseline, 4, 8, and 12 weeks. Efficacy assessments included tender joint count (TJC 0-28), swollen joint count (SJC 0-28), Disease Activity Score 28 (DAS28), Health Assessment Questionnaire (HAQ), and EULAR response. This was a preliminary analysis of 236 patients. The sample size for each outcome variable is based on the data available at the time of the analysis. The data from this preliminary analysis were compared with the Week 12 data from Study A (N=2008).

[7] = test system: patients with active rheumatoid arthritis; details: Study A (N=2008), 12 weeks; cited from earlier work
[8] = test system: patients with early vs. long-standing RA; details: human, in vivo
Source text: Study J was a 2-year randomized controlled trial in patients with early RA (disease duration<3 years). Participants in these clinical trials and in other phase Mb studies, were routinely evaluated for safety. Reports of serious adverse events (SAE) were tabulated using MedDRA coding by events per 100-patient-years (E/100PY). SAE rates were compared with respect to disease duration between patients with early (<3 yrs) and long-standing RA.

[9] = test system: patients with long-standing RA; assay: Study I: serious adverse events and withdrawals; details: 262 patients

Molecule: CN(Cc1cnc2nc(N)nc(N)c2n1)c1ccc(C(=O)N[C@@H](CCC(=O)O)C(=O)O)cc1 [mtx alone, methotrexate]
- DAS28 mean change (adult patients with RA [1]; week 52, baseline CRP 1-4 mg/dL): −1.2
- DAS28 mean change (adult patients with RA [1]; week 52, baseline CRP <1 mg/dL): −1.3
- DAS28 mean change (adult patients with RA [1]; week 52, baseline CRP >4 mg/dL): −1.7
- patients with <20% decrease in CRP (adult patients with RA [2]): 67%
- patients with ≧20% decrease in CRP (adult patients with RA [2]): 33%

Molecule: adalimumab: human anti-TNF mAb (HUMIRA, Abbott Laboratories), described in U.S. Pat. No. 6,090,382 as D2E7
- DAS28, % change of mean clinical improvement from baseline ([3]; 6 months of exposure): 39%
- DAS28, % change of mean clinical improvement from baseline ([3]; 12 months): 44%
- DAS28, % change of mean clinical improvement from baseline ([3]; 24 months): 45%
- DAS28, % change of mean clinical improvement from baseline ([3]; 36 months): 47%
- DAS28, % change of mean clinical improvement from baseline ([3]; 48 months): 50%
- patients in clinical remission (DAS28<2.6) ([3]; 48 months): 49%
- patients achieving clinical remission (DAS28<2.6) ([3]; Year 5): Over 40%
- Months in remission (mean) ([3]; baseline DAS28 < 5.1): 27 months
- Months until remission (mean) ([3]; baseline DAS28 < 5.1): 8 months
- patients with sustained remission (≧6 months) ([3]; baseline DAS28 < 5.1): (n = 105, 50%*)
- Months in remission (mean) ([3]; baseline DAS28 ≧ 5.1): 23 months
- Months until remission (mean) ([3]; baseline DAS28 ≧ 5.1): 11 months
- patients with sustained remission (≧6 months) ([3]; baseline DAS28 ≧ 5.1): (n = 140, 22%**)
- % of visits with ACR70 during remission ([3]; disease duration >2 years): 64%
- % of visits with CRP <10 mg/L during remission ([3]; disease duration >2 years): 95%
- % of visits with SJC = 0 during remission ([3]; disease duration >2 years): 54%
- % of visits with TJC = 0 during remission ([3]; disease duration >2 years): 70%
- Months in remission (mean) ([3]; disease duration >2 years): 25 months
- Months until remission (mean) ([3]; disease duration >2 years): 10 months
- patients with sustained remission (≧6 months) ([3]; disease duration at entry >2 years): (n = 209, 29%*)
- patients with sustained remission (≧6 months) ([3]; disease duration at entry ≦2 years): (n = 36, 31%*)
- % of visits with ACR70 during remission ([3]; disease duration ≦2 years): 71%
- % of visits with CRP <10 mg/L during remission ([3]; disease duration ≦2 years): 94%
- % of visits with SJC = 0 during remission ([3]; disease duration ≦2 years): 64%
- % of visits with TJC = 0 during remission ([3]; disease duration ≦2 years): 77%
- Months in remission (mean) ([3]; disease duration ≦2 years): 25 months
- Months until remission (mean) ([3]; disease duration ≦2 years): 10 months
- median DAS28 score ([3]; end of fourth year): 2.7
- patients in clinical remission (DAS28<2.6) ([3]; month 6): about 27%
- HAQ, % change of mean clinical improvement from baseline ([4]; 6 months): 45%
- HAQ, % change of mean clinical improvement from baseline ([4]; 12 months): 43%
- HAQ, % change of mean clinical improvement from baseline ([4]; 24 months): 47%
- HAQ, % change of mean clinical improvement from baseline ([4]; 36 months): 47%
- HAQ, % change of mean clinical improvement from baseline ([4]; 48 months): 50%
- SF-36 scores of all subscales/domains [5]: clinically meaningful improvements
- improvement in HAQ score ([6]; 12 weeks): −0.55
- patients achieving HAQ<0.5 ([6]; 12 weeks): 28%
- HAQ (mean), change from baseline ([6]; Study C, 12 weeks, preliminary analysis): −0.55 (122)
- mean HAQ ([6]; week 12 (baseline 1.4)): 0.86
- SJC (0-28), change from baseline, median [7]: −7
- TJC (0-28), change from baseline, median [7]: −10
- Any serious infection [8]: 0.040 N/PY
- Serious infections [8]: 4.8 E/100PY
- withdrawals for lack of efficacy [9]: 8%
